Experimental findings from patent publication US8937041B2, “Macrocyclic hepatitis C serine protease inhibitors” (AbbVie, Inc., priority 2010, dated 2015) are described below.

Data set [1] addresses recombinant HCV NS3 protease, genotype 1a (Hepatitis C virus genotype 1a, UniProt P27958). The data set is described as follows: biochemical. To be noted: genotype 1a NS3 protease; read-out: IC50 in a 1a enzyme assay.
The target of data set [2] is recombinant HCV NS3 protease, genotype 1b (Hepatitis C virus genotype 1b, UniProt Q9WMX2). The data set is described as follows: biochemical. The note with it: genotype 1b NS3 protease; read-out: IC50 in a 1b enzyme assay.
Chain of recombinant HCV NS3 protease, genotype 1b (Q9WMX2 1027-1657, other chains not shown): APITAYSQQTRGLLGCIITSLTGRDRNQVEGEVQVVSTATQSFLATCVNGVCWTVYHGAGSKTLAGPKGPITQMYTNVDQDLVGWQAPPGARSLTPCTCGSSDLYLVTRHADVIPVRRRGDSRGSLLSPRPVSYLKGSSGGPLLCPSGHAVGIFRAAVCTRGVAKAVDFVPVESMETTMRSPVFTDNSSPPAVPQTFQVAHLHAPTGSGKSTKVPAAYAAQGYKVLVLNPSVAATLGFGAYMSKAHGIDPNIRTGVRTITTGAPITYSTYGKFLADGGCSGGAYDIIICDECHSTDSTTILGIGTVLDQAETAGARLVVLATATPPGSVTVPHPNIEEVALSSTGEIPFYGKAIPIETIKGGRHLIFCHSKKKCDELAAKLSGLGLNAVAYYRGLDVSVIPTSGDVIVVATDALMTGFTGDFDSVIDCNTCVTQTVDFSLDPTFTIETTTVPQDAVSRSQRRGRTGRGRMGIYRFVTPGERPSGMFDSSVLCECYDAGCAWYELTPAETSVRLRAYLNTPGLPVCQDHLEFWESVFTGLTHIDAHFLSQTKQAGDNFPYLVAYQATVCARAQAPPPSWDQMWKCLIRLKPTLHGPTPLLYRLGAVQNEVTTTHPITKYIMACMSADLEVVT
Another data set is described as follows: HLM stability. In kind it is in vitro ADME.
The subject of data set [3] is HCV genotype 1a replicon (1a-H77). The data set is described as follows: microbe, parasite or virus in culture. The note with it: Hepatitis C virus, read-out: EC50 in a replicon cell line assay in a 1a-H77 background. The class given is cell-based.
Data set [4] relates to HCV genotype 1b replicon (1b-Con-1). Put plainly: microbe, parasite or virus in culture. To be noted: Hepatitis C virus, read-out: EC50 in a replicon cell line assay in a 1b-con1 background. In kind it is cell-based. (In general: Replicon systems follow genome replication, usually without infectious particles.)

pEC50, pIC50: −log10 of the molar value. A value given as a limit tells only on which side of the number the result lay.

Chain of recombinant HCV NS3 protease, genotype 1a (P27958 1027-1657, other chains not shown): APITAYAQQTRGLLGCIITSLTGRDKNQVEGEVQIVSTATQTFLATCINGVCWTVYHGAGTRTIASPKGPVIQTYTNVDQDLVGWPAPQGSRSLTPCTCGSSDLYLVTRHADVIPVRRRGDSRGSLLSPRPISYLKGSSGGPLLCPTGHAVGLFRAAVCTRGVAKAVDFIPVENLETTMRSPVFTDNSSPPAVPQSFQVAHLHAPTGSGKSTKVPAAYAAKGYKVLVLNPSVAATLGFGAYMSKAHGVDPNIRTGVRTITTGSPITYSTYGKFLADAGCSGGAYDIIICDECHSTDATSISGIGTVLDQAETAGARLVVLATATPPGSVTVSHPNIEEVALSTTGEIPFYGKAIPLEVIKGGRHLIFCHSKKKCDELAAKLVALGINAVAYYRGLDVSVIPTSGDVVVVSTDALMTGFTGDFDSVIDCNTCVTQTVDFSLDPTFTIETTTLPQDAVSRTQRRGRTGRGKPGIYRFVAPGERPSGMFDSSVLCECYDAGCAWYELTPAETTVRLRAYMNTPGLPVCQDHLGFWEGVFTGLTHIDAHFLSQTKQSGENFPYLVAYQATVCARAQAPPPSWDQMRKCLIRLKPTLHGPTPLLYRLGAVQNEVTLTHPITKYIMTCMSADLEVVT

The pIC50 is the IC50 on a negative log10 scale, so that one unit is a factor of ten. The term pEC50 denotes the EC50 on a negative log10 scale, so that one unit is a factor of ten. With `CCc1nc2ccccc2nc1O[C@@H]1C[C@H]2C(=O)N[C@]3(C(=O)NS(=O)(=O)C4(C)CC4)C[C@H]3CC(F)(F)CCCCC[C@H](NC(=O)OC(C)(C)C)C(=O)N2C1` [Example 8, tert-butyl (2R,6S ,13aS,14aR,16aS)-2-(3-ethylquinoxalin-2-yloxy)-12,12-difluoro-14a-(1-methylcyclopropylsulfonylcarbamoyl)-5,16-dioxooctadecahydrocyclopropa[e]pyrrolo[1,2-a][1,4]diazacyclopentadecin-6-ylcarbamate], the pIC50 in data set [1] and in data set [2] was 9.30 to 10.00 in each case. In the data set “HLM stability”, this molecule came in with an HLM stability value above 100 µL/min/mg. Besides, the pEC50 in data set [3] is 8.30 to 8.70; in data set [4] it was 8.70 to 9.00.

Take `CCc1nc2ccccc2nc1O[C@@H]1C[C@H]2C(=O)N[C@]3(C(=O)NS(=O)(=O)C4CC4)C[C@H]3CC(F)(F)CCCCC[C@H](NC(=O)c3cc(C)on3)C(=O)N2C1` [Example 9, N-((2R,6S ,13aS,14aR,16aS)-14a-(cyclopropylsulfonylcarbamoyl)-2-(3-ethylquinoxalin-2-yloxy)-12,12-difluoro-5,16-dioxooctadecahydrocyclopropa[e]pyrrolo[1,2-a][1,4]diazacyclopentadecin-6-yl)-5-methylisoxazole-3-carboxamide]: the pIC50 in data set [1] was 9.00 to 9.30; in data set [2], 9.30 to 10.00. In “HLM stability”, this molecule yielded an HLM stability value below 50 µL/min/mg. Also, the values for the negative logarithm of the EC50 (pEC50) in data set [3] and in data set [4] were 8.30 to 8.70 and 8.70 to 9.00, respectively.

Consider `CCc1nc2ccccc2nc1O[C@@H]1C[C@H]2C(=O)N[C@]3(C(=O)NS(=O)(=O)C4CC4)C[C@H]3CC(F)(F)CCCCC[C@H](NC(=O)C(C)(C)C)C(=O)N2C1` [Example 12, (2R,6S,13aS,14aR,16a5)-N-(cyclopropylsulfonyl)-2-(3-ethylquinoxalin-2-yloxy)-12,12-difluoro-5,16-dioxo-6-pivalamidooctadecahydrocyclopropa[e]pyrrolo[1,2-a][1,4]diazacyclopentadecine-14a-carboxamide], for which the pIC50 in data set [1] and in data set [2] was 9.00 to 9.30 in each case. The molecule also showed an HLM stability value in the data set “HLM stability” below 50 µL/min/mg. The pEC50 in data set [3] and in data set [4] was below 8.30 in each case.

Turning to `CC(C)(C)OC(=O)N[C@H]1CCCCCC(F)(F)C[C@@H]2C[C@@]2(C(=O)NS(=O)(=O)C2CC2)NC(=O)[C@@H]2C[C@@H](Oc3nc4ccccc4c4ccccc34)CN2C1=O` [Example 19, tert-butyl (2R,6S,13aS,14aR,16aS)-14a-(cyclopropylsulfonylcarbamoyl)-12,12-difluoro-5,16-dioxo-2-(phenanthridin-6-yloxy)octadecahydrocyclopropa[e]pyrrolo[1,2-a][1,4]diazacyclopentadecin-6-ylcarbamate], the pIC50 in data set [1] and in data set [2] was above 10.00 each time. In “HLM stability”, this molecule gave an HLM stability value above 100 µL/min/mg. Moreover, the pEC50 in data set [3] and in data set [4] was above 9.00 each time.
